Assay results reported in ChEMBL document CHEMBL1201862, “PubChem BioAssay data set” (2004).
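Compound exposure: 48 hours, 5 concentrations, 96-well plates. GI50 marks 50% less growth.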 The source made the active and inactive calls. Cut-off read from the data, not from the text of the source: active = GI50 up to about 1.1 µM and inactive = higher.

How the values were obtained:
Assay in all cases: NCI-60 cell line screen, 48 h
[1] = test system: OVCAR-3
[2] = test system: SF-539
[3] = test system: SF-268
[4] = test system: CCRF-CEM
[5] = test system: UO-31
[6] = test system: DU-145
[7] = test system: SK-MEL-28
[8] = test system: HOP-92
[9] = test system: HOP-62
[10] = test system: LOX IMVI
[11] = test system: Malme-3M
[12] = test system: CAKI-1
[13] = test system: OVCAR-4
[14] = test system: COLO 205
[15] = test system: MOLT-4
[16] = test system: IGROV-1
[17] = test system: EKVX
[18] = test system: SN12C
[19] = test system: K562
[20] = test system: RXF 393

| Structure (SMILES) | GI50 [1] | GI50 [2] | GI50 [3] | GI50 [4] | GI50 [5] | GI50 [6] | GI50 [7] | GI50 [8] | GI50 [9] | GI50 [10] | GI50 [11] | GI50 [12] | GI50 [13] | GI50 [14] | GI50 [15] | GI50 [16] | GI50 [17] | GI50 [18] | GI50 [19] | GI50 [20] |
| --- | --- | --- | --- | --- | --- | --- | --- | --- | --- | --- | --- | --- | --- | --- | --- | --- | --- | --- | --- | --- |
| COC(=O)c1ccccc1C1CN=NC12Cc1ccc(C)cc1C2=O (stereo not given) | 38.6 µM (inactive) | > 100 µM (inactive) | > 100 µM (inactive) | > 100 µM (inactive) | 34.7 µM (inactive) | > 100 µM (inactive) | 67.8 µM (inactive) | 38.9 µM (inactive) | > 100 µM (inactive) | 48.1 µM (inactive) | 86.5 µM (inactive) | 84.5 µM (inactive) | 32.8 µM (inactive) | 60.8 µM (inactive) | 47.2 µM (inactive) | 63.8 µM (inactive) | 65.8 µM (inactive) | 58.6 µM (inactive) | 46.6 µM (inactive) | 97.7 µM (inactive) |
| O=C1CC2(CCNCC2)C(=O)N1N1CCOCC1 | > 100 µM (inactive) | > 100 µM (inactive) | > 100 µM (inactive) | > 100 µM (inactive) | > 100 µM (inactive) | > 100 µM (inactive) | > 100 µM (inactive) | > 100 µM (inactive) | > 100 µM (inactive) | > 100 µM (inactive) | > 100 µM (inactive) | > 100 µM (inactive) | > 100 µM (inactive) | > 100 µM (inactive) | > 100 µM (inactive) | > 100 µM (inactive) | > 100 µM (inactive) | > 100 µM (inactive) | > 100 µM (inactive) | > 100 µM (inactive) |
| BrC(Br)=C1C(=C(Br)Br)C(Br)C1Br (stereo not given) | 0.794 µM (active) | 0.811 µM (active) | 0.274 µM (active) | 0.0989 µM (active) | 0.701 µM (active) | 0.106 µM (active) | 1.1 µM (active) | 1.34 µM (inactive) | 1.02 µM (active) | 0.0706 µM (active) | 0.418 µM (active) | 0.132 µM (active) | 2.51 µM (inactive) | 0.849 µM (active) | 0.121 µM (active) | 0.628 µM (active) | 2.08 µM (inactive) | 0.716 µM (active) | 0.158 µM (active) | 0.226 µM (active) |
| C/C(=C/CC[C@](C)(OC1OC(CO)C(O)C(O)C1O)[C@H]1CC[C@]2(C)[C@@H]1CC[C@@H]1[C@@]3(C)CC[C@H](O)C(C)(C)[C@@H]3C[C@H](O)[C@]12C)CO (stereo not given in full) | 24.2 µM (inactive) | 10.4 µM (inactive) | 21.8 µM (inactive) | 27.9 µM (inactive) | 37.9 µM (inactive) | 85.7 µM (inactive) | 18.2 µM (inactive) | 27.4 µM (inactive) | 26.3 µM (inactive) | 18.1 µM (inactive) | 21.6 µM (inactive) | 31.7 µM (inactive) | 51.9 µM (inactive) | 21.3 µM (inactive) | 12.2 µM (inactive) | 38 µM (inactive) | 60.8 µM (inactive) | 22 µM (inactive) | 13.4 µM (inactive) | 3.46 µM (inactive) |
| C=CCn1c(=O)ccn(/C(=C/C(=O)OCC)C(=O)OCC)c1=O | 5.66 µM (inactive) | 24 µM (inactive) | 19.7 µM (inactive) | 2.08 µM (inactive) | 14.9 µM (inactive) | 21.7 µM (inactive) | 15.2 µM (inactive) | 2.36 µM (inactive) | 20.9 µM (inactive) | 6.7 µM (inactive) | 11 µM (inactive) | 1.91 µM (inactive) | 12.4 µM (inactive) | 1.74 µM (inactive) | 2.99 µM (inactive) | 15.3 µM (inactive) | 17.2 µM (inactive) | 8.73 µM (inactive) | 3.08 µM (inactive) | 14.1 µM (inactive) |
| N#CC1CCCC2SC(F)(F)C(F)(F)C12 (stereo not given) | > 100 µM (inactive) | > 100 µM (inactive) | > 100 µM (inactive) | 26.4 µM (inactive) | > 100 µM (inactive) | > 100 µM (inactive) | > 100 µM (inactive) | > 100 µM (inactive) | > 100 µM (inactive) | 41.6 µM (inactive) | > 100 µM (inactive) | > 100 µM (inactive) | > 100 µM (inactive) | > 100 µM (inactive) | 26.6 µM (inactive) | > 100 µM (inactive) | > 100 µM (inactive) | > 100 µM (inactive) | 30.5 µM (inactive) | > 100 µM (inactive) |
| CC(=O)OC(C)(C)[C@H]1O[C@]23O[C@]1(C)C[C@@H](C)[C@@H]2[C@@]1(C)CC[C@@]24C[C@@]25CC[C@H](O[C@@H]2OC[C@@H](O)[C@H](O)[C@H]2O)C(C)(C)[C@@H]5CC[C@H]4[C@]1(C)[C@H]3O | 3.59 µM (inactive) | 4.35 µM (inactive) | 14 µM (inactive) | 5.94 µM (inactive) | 14.6 µM (inactive) | 4.34 µM (inactive) | 7.08 µM (inactive) | 9.02 µM (inactive) | 11.9 µM (inactive) | 3.27 µM (inactive) | 22.8 µM (inactive) | 5.47 µM (inactive) | 3.95 µM (inactive) | 9.12 µM (inactive) | 5.32 µM (inactive) | 7.08 µM (inactive) | 4.06 µM (inactive) | 4.41 µM (inactive) | 4.5 µM (inactive) | 3.36 µM (inactive) |
| CC1(C)CC[C@]2(C(=O)O)CC[C@]3(C)[C@H](C(=O)C=C4[C@@]5(C)C=C(C#N)C(=O)C(C)(C)[C@@H]5CC[C@]43C)[C@@H]2C1 [BARDOXOLONE] | 0.102 µM (active) | 0.569 µM (active) | 0.659 µM (active) | 0.22 µM (active) | 1.06 µM (active) | 0.508 µM (active) | 0.16 µM (active) | 1.29 µM (inactive) | 0.665 µM (active) | 0.0944 µM (active) | 0.224 µM (active) | 0.687 µM (active) | 1.03 µM (active) | 0.215 µM (active) | 0.259 µM (active) | 0.762 µM (active) | 1.34 µM (inactive) | 0.493 µM (active) | 0.263 µM (active) | 0.0995 µM (active) |
